Where two headings read alike, the source gives them in different places. Where a SMILES comes first, the peptide text is derived from it.
Experiments:
Test in all cases: biochemical
Type in all cases: binding
[1] = biological target: T1, HLA-DRB1*0101 (Homo sapiens, UniProt P01903+P01911, A100R/D57E/F55L/F60I/F76Y/I96L/L162R/M171V/P40L/Q125E/R42F/V115G/Y59C); details: binding inhibition assay; NB = non-binder (no dose-dependent inhibition); read-out: DRB1*0101 IC50
T1 construct: purchased
Method: (§1) The binding assay conducted by EpiVax yields an indirect measure of peptide-MHC affinity as it utilizes a competition assay format per the methodology described in Steere et al. ([35]). […] Post incubation, the mixtures are moved to a 96-well plate coated with anti-HLA-DR antibody to capture HLA-peptide complexes. Time-resolved fluorescence measurement of the bound labeled reference peptide complex present in each mixture is detected with a europium-linked probe via fluorescent spectrophotometry using a SpectraMax M5 system. HLA binding affinity of each test peptide is expressed as the percent inhibition of reference peptide binding. Percent inhibition values (across the test peptide titration range) are used to calculate the half maximal inhibitory concentration (IC50) of each test peptide. For these studies, test peptides were assessed using a range of final concentrations from 100,000 nM to 100 nM. The panel of commercially-available HLA-DRB1 allele monomers used includes: *0101, *0301, *0401, *0701, *0801, *1101, *1301 and *1501. EpiVax established HLA-DRB1 binding affinity cutoffs were used to rank the IC50 values.
(§2) In vitro HLA binding assays (step 2 of workflow shown in Figure 1 ) were carried out with the synthesized peptides to verify the EpiMatrix outputs and provide a measure of accuracy for comparing in silico-predicted HLA-DRB1 allele binding to laboratory assessments of HLA-DRB1 allele binding. These assessments were conducted using a competition assay format whereby IC50 values were calculated based on the ability of the test peptide to compete with a labeled, high binding affinity reference peptide for HLA-DRB1 molecule binding. Sequences for the high affinity reference peptides and the negative control peptide, known not to bind any of the HLA-DRB1 molecules, are provided in Table S18 .

[2] = biological target: HLA-DRB1*1101 (Homo sapiens, UniProt P01903+P01911, A100R/A169T/A87E/I96F/K41T/L162R/M171V/P40S/Q125H/Q178H/Q39Y/Q99D/R42S/S66Y/T262R/V115G/W38E); details: binding inhibition assay; NB = non-binder (no dose-dependent inhibition); read-out: DRB1*1101 IC50
Chain of HLA-DRB1*1101 (P01903 26-254 limits assumed, other chains not shown): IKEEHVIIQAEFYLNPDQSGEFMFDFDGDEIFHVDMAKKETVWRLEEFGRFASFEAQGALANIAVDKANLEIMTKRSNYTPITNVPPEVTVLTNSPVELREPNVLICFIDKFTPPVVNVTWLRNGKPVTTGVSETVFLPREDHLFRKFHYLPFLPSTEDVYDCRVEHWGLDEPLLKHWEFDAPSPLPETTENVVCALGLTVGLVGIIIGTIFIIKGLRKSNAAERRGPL
Method: as §1, §2

[3] = biological target: T2, HLA-DRB1*0401 (Homo sapiens, UniProt P01903+P01911, A100K/A169T/F76Y/I96L/K127E/L162R/M171V/N62H/P40V/Q125Y/R42H/S133A/S149N/S66Y/V115G/V209L/W38E); details: binding inhibition assay; NB = non-binder (no dose-dependent inhibition); read-out: DRB1*0401 IC50
T2 construct: purchased
Method: as §1, §2

[4] = biological target: T3, HLA-DRB1*1501 (Homo sapiens, UniProt P01903+P01911); details: binding inhibition assay; NB = non-binder (no dose-dependent inhibition); read-out: DRB1*1501 IC50
T3 construct: purchased
Method: as §1, §2

[5] = biological target: HLA-DRB1*1301 (Homo sapiens, UniProt P01903+P01911, A100E/A169T/K41T/L162R/M171V/P40S/Q125H/Q178H/Q39Y/Q99D/R42S/S66N/T262R/W38E/Y61H); details: binding inhibition assay; NB = non-binder (no dose-dependent inhibition); read-out: DRB1*1301 IC50
Method: as §1, §2

[6] = biological target: HLA-DRB1*0701 (Homo sapiens, UniProt P01903+P01911, A100R/A102G/A103Q/D57E/D86V/E43K/F76Y/K127E/L162R/M171V/P40G/Q125H/Q99D/R33Q/R42Y/R54Q/S133A/S66F/T210M/V115G/Y107V/Y59L/Y89S); details: binding inhibition assay; NB = non-binder (no dose-dependent inhibition); read-out: DRB1*0701 IC50
Method: as §1, §2

[7] = biological target: HLA-A*0101 (Homo sapiens, UniProt P04439, A114D/A174V/A182V/D101N/D185E/E176A/E190D/L180R/Q94H/R68K/S129P/T187R/V100A/V91M/W191G)
Method: A cell-free class I HLA binding assay that allows for in vitro quantification of peptide-HLA binding affinity in a competition format was used. In this assay, a fluorescently labeled, high binding, control peptide is loaded onto 384-well ½-area plates along with unlabeled experimental peptides. To remove endogenous peptides and render the HLA A and B molecules receptive to binding, HLA is heated at 53°C for 15 minutes and immediately added to the assay. The mixture is then allowed to stand for three days. Once the mixture has reached steady equilibrium (at 72 hours), displacement of the high binding control peptide is measured through fluorescence polarization. Binding of experimental peptides is expressed as the percent inhibition of the labeled control peptide (experimental fluorescence / control fluorescence, multiplied by 100). The percent inhibition values for each experimental peptide (across a range of molar concentrations) are used to calculate the concentration which inhibits 50% of the labeled control peptide’s specific binding. This value is referred to as the peptide’s IC50.

[8] = allele A*0101, fluorescence polarization competition, read-out: IC50 (nM), in vitro HLA binding affinity

Compound: CSCC[C@H](NC(=O)[C@@H](NC(=O)[C@H](Cc1c[nH]cn1)NC(=O)[C@H](Cc1ccccc1)NC(=O)CNC(=O)[C@H](Cc1c[nH]cn1)NC(=O)[C@H](CCCCN)NC(C)=O)[C@@H](C)O)C(=O)N[C@@H](CC(N)=O)C(=O)N[C@@H](CC(N)=O)C(=O)N[C@@H](CC(C)C)C(=O)N[C@@H](Cc1c[nH]cn1)C(=O)NCC(=O)N[C@@H](CC(=O)O)C(=O)NCC(=O)N[C@H](C(=O)N[C@@H](CO)C(=O)N[C@@H](CCC(=O)O)C(N)=O)C(C)C [EBA175_016] (Ac-KHGFHTMNNLHGDGVSE-NH2)
- IC50 [1]: 0.16 µM
- IC50 [2]: 8.62 µM
- IC50 [3]: 0.458 µM
- IC50 [4]: 79 µM
- IC50 [5]: > 100 µM

Compound: CC[C@H](C)[C@H](NC(=O)[C@H](Cc1ccc(O)cc1)NC(=O)[C@@H](NC(=O)[C@H](CO)NC(=O)[C@H](Cc1c[nH]cn1)NC(C)=O)[C@@H](C)O)C(=O)N[C@@H](CCCCN)C(=O)N[C@@H](CO)C(=O)N[C@@H](Cc1ccc(O)cc1)C(=O)N[C@@H](CC(C)C)C(=O)N[C@@H](CC(N)=O)C(=O)N[C@H](C(=O)N[C@@H](CC(N)=O)C(=O)N[C@H](C(=O)N[C@@H](CC(N)=O)C(=O)N[C@@H](CC(=O)O)C(=O)NCC(=O)N[C@@H](CC(C)C)C(=O)N[C@@H](CCCCN)C(=O)N[C@@H](Cc1ccc(O)cc1)C(N)=O)C(C)C)[C@@H](C)O [RH5_003] (Ac-HSTYIKSYLNTNVNDGLKY-NH2)
- IC50 [1]: 0.282 µM
- IC50 [6]: 58.5 µM
- IC50 [2]: 96.5 µM
- IC50 [3]: 7.45 µM
- IC50 [4]: 0.004 µM
- IC50 [5]: 20.1 µM

Compound: CC(=O)N[C@@H](CCC(=O)O)C(=O)N[C@@H](CCC(=O)O)C(=O)NCC(=O)N[C@@H](Cc1ccc(O)cc1)C(=O)N[C@@H](CCCCN)C(=O)N[C@@H](CC(N)=O)C(=O)N[C@H](C(=O)N[C@@H](CCCCN)C(=O)NCC(=O)N[C@@H](CCCCN)C(=O)N[C@@H](CS)C(=O)N[C@H](C(=O)N1CCC[C@H]1C(=O)N[C@@H](CC(=O)O)C(=O)N[C@@H](CC(N)=O)C(=O)N[C@@H](CCCCN)C(N)=O)C(C)C)C(C)C [RIPR_015] (Ac-EEGYKNVKGKCVPDNK-NH2)
- IC50 [1]: 1.81 µM
- IC50 [6]: 9.28 µM
- IC50 [2]: 32 µM
- IC50 [3]: > 100 µM
- IC50 [4]: > 100 µM
- IC50 [5]: > 100 µM

Compound: CC[C@H](C)[C@H](NC(=O)[C@@H]1CCCN1C(=O)[C@@H](NC(=O)[C@H](CC(=O)O)NC(=O)[C@H](CC(N)=O)NC(=O)[C@@H](N)Cc1ccccc1)C(C)C)C(=O)N[C@@H](CCCCN)C(=O)N[C@@H](CCSC)C(=O)N[C@@H](CCC(=O)O)C(=O)N[C@@H](Cc1ccc(O)cc1)C(=O)O [RH5_505] (H-FNDVPIKMEY-OH)
- IC50 [7, 8]: 498 nM

Compound: CC(C)C[C@H](NC(=O)[C@@H](NC(=O)[C@H](CO)NC(=O)[C@@H](NC(=O)[C@@H](N)CC(=O)O)C(C)C)[C@@H](C)O)C(=O)N[C@@H](CC(N)=O)C(=O)N[C@@H](CC(=O)O)C(=O)N[C@@H](CCC(=O)O)C(=O)N[C@@H](Cc1ccc(O)cc1)C(=O)O [CYRPA_282] (H-DVSTLNDEY-OH)
- IC50 [7, 8]: 52200 nM

Compound: CC(C)C[C@H](N)C(=O)N[C@H](C(=O)N1CCC[C@H]1C(=O)N[C@H](C(=O)N[C@@H](C)C(=O)N[C@H](C(=O)NCC(=O)N[C@@H](CC(N)=O)C(=O)N[C@@H](CCC(N)=O)C(=O)N[C@@H](Cc1ccc(O)cc1)C(=O)O)[C@@H](C)O)C(C)C)[C@@H](C)O [AMA1_166] (H-LTPVATGNQY-OH)
- IC50 [7, 8]: 2560 nM

Compound: CC[C@H](C)[C@H](NC(=O)[C@H](Cc1c[nH]cn1)NC(=O)[C@@H](NC(=O)[C@H](CCC(=O)O)NC(=O)[C@H](CC(=O)O)NC(=O)[C@H](CCC(=O)O)NC(=O)[C@H](CCC(=O)O)NC(=O)CN)[C@@H](C)O)C(=O)N[C@@H](Cc1ccc(O)cc1)C(=O)O [CYRPA_070] (H-GEEDETHIY-OH)
- IC50 [7, 8]: 261000 nM

Compound: CC[C@H](C)[C@H](N)C(=O)N1CCC[C@H]1C(=O)N[C@@H](CC(=O)O)C(=O)N[C@@H](CC(N)=O)C(=O)N[C@@H](CC(=O)O)C(=O)N[C@@H](CCCCN)C(=O)N[C@@H](CC(N)=O)C(=O)N[C@@H](CO)C(=O)N[C@@H](CC(N)=O)C(=O)N[C@@H](Cc1ccc(O)cc1)C(=O)O [AMA1_225] (H-IPDNDKNSNY-OH)
- IC50 [7, 8]: 14700 nM

Compound: CC(C)C[C@H](NC(=O)[C@H](Cc1ccc(O)cc1)NC(=O)[C@H](C)NC(=O)[C@H](Cc1ccc(O)cc1)NC(=O)[C@H](CC(=O)O)NC(=O)[C@H](CC(N)=O)NC(=O)[C@@H](N)CCC(=O)O)C(=O)N[C@@H](CC(N)=O)C(=O)N[C@@H](CCCCN)C(=O)N[C@@H](Cc1ccc(O)cc1)C(=O)O [RIPR_0059] (H-ENDYAYLNKY-OH)
- IC50 [7, 8]: 42200 nM

Compound: C[C@@H](O)[C@H](NC(=O)[C@@H](N)CC(=O)O)C(=O)N[C@@H](CC(=O)O)C(=O)N[C@@H](CO)C(=O)N[C@@H](CC(N)=O)C(=O)N[C@@H](Cc1c[nH]cn1)C(=O)N[C@H](C(=O)N1CCC[C@H]1C(=O)N[C@@H](CO)C(=O)N[C@@H](CC(N)=O)C(=O)O)[C@@H](C)O [RH5_280] (H-DTDSNHTPSN-OH)
- IC50 [7]: 5880 nM

Compound: CC[C@H](C)[C@H](NC(=O)[C@H](CC(=O)O)NC(=O)[C@H](CC(C)C)NC(=O)[C@H](CCCCN)NC(=O)[C@H](CC(N)=O)NC(=O)[C@H](CCC(=O)O)NC(C)=O)C(=O)N[C@@H](CC(C)C)C(=O)N[C@@H](CC(N)=O)C(=O)N[C@@H](CC(N)=O)C(=O)N[C@@H](CO)C(=O)N[C@@H](CCCCN)C(=O)N[C@@H](Cc1ccccc1)C(=O)N[C@@H](CC(N)=O)C(=O)N[C@@H](CCCCN)C(=O)N[C@@H](CCCNC(=N)N)C(=O)N[C@@H](Cc1c[nH]c2ccccc12)C(=O)N[C@@H](CCCCN)C(N)=O [EBA175_002] (Ac-ENKLDILNNSKFNKRWK-NH2)
- IC50 [1]: 11.9 µM
- IC50 [3]: > 100 µM
- IC50 [4]: 13.9 µM
- IC50 [5]: 14.2 µM

Compound: CC[C@H](C)[C@H](NC(=O)CNC(=O)[C@H](CC(N)=O)NC(=O)[C@@H](NC(=O)[C@@H](N)CC(N)=O)[C@@H](C)O)C(=O)N[C@@H](CCCNC(=N)N)C(=O)N[C@@H](Cc1ccc(O)cc1)C(=O)N[C@@H](Cc1c[nH]cn1)C(=O)N[C@@H](Cc1ccc(O)cc1)C(=O)O [RH5_352] (H-NTNGIRYHY-OH)
- IC50 [7, 8]: 4380 nM

Reference: article PMC8294059, “Identification and Immune Assessment of T Cell Epitopes in Five Plasmodium falciparum Blood Stage Antigens to Facilitate Vaccine Candidate Selection and Optimization” (Frontiers in Immunology, 2021)
